Measurements published in patent US20090215895A1, “Therapeutic and carrier molecules” (PEPLIN BIOLIPIDS PTY LTD, priority 2004, published 2009).

What was measured:
[1] = system: HUVEC; assay: Agonist-enhanced neutrophil adherence to HUVEC; type: cell-based, human; details: 20 μmol/l, 1 hr pre-treatment, TNF 4 hr
Experimental: FIG. 11 is a representation showing effect of β-oxa; β-thia and natural PUFA on TNF-enhanced neutrophil adherence to HUVEC. HUVEC were pre-treated with the fatty acids (20 μmol/l) for 60 min at 37° C. before being stimulated with TNF (125 U/200 μl medium) for 4 hr at 37° C. The cells were then co-incubated with neutrophils (5×10^5 cells/well) at 37° C. for 30 min and the degree of neutrophil adherence quantitated. The results are expressed as % of control and represent the mean±SEM of three separate experiments each performed in triplicate. * p<0.05, ***p<0.001, for significant differences between pre-treatment with fatty acid and control (one-way analysis of variance followed by the Dunnett test for multiple comparisons).
Adhesion of neutrophils, prepared by the rapid-single-step method (Ferrante et al, J. Immun. Methods 36:109-117, 1980), to HUVEC isolated from umbilical cords was carried out essentially as described (Huang et al, 1997 supra).
The magnitude of the suppressive effect of -MP3 was dependent on-pre-treatment time and concentration with significant effects observed with a pre-treatment time of 1 hr and a concentration of ≧5 μmol/l.

[2] = Formalin-induced pain test (hind paw licking time); type: in vivo; details: 30 min prior to formalin, mean of 5 animals
Experimental: Investigations of the effects of PT2 on pain induced by phenylquinolic acid (PQ writhing) and formalin have been made. In both the PQ writhing test (FIG. 3) and the formalin algesia test (FIG. 4), PT2 administered by intraperitoneal inoculation reduced pain and compared favourably with pain reduction by aspirin (oral, 100 mg/kg). In these tests, the EPUFA was administered 30 min before the pain stimulus and effects recorded over the following 20 min.
Investigations of PT2 in the formalin-induced analgesia model looking specifically at the biphasic response have also been undertaken and are shown in Table 1. It is well documented that in this model, aspirin suppresses only pain related to the inflammatory process (15-20 mins post-administration of formalin), while morphine suppresses pain in both phases of the response (0-5 min and 15-20 min).
Compounds were administered intraperationedly (ip) 30 min prior to the administration of formalin (0.02 ml, 1% solution) via subplantar injection into the right hind paw. Reduction of the induced hind paw licking time recorded during the following 0-5 min period (Phase I response) or 15-20 min period (Phase II response) was determined. The data in Table 1 are the mean responses of 5 animals in each group.

[3] = target: T1, PKC isozyme δ (Homo sapiens, UniProt Q05655); assay: PMA-induced PKC translocation in HL-60 cells (Western blot); type: cell-based; parameters: key: +++: strong inhibition of PKC activation; −: no inhibition of PKC activation; details: 20 μM, 60 min
T1 construct: endogenous in cells; host or cells: HL-60
T1 sequence (Q05655 whole entry): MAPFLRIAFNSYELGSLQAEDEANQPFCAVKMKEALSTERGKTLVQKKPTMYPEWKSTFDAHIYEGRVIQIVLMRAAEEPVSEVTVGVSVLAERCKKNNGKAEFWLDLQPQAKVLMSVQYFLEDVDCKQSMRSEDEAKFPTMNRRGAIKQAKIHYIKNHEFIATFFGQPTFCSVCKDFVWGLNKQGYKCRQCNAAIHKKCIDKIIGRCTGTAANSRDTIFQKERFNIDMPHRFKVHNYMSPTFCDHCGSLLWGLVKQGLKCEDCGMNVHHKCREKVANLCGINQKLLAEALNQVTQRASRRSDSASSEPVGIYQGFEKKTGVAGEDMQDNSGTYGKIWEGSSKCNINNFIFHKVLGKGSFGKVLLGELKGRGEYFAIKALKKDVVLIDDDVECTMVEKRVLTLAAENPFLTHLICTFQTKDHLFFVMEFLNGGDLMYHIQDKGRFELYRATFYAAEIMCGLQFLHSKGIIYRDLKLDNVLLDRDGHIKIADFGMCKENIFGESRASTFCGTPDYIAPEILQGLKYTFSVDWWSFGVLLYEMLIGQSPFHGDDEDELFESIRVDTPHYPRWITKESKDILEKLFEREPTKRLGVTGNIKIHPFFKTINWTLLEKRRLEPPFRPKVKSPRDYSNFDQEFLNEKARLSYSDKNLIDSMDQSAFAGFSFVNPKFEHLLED
Experimental: (§1) The effects of nitroanalogs of PUFAs on PKC activation were determined. Lx compounds at a concentration of 20 μM were incubated with the HL-60 cell line (final condition 10^6 cells/ml) for 60 min. PKC activation was then attempted to be induced by PMA. PKC enzyme translocation was quantitated by Western blot.

[4] = target: T2, PKC isozyme β2 (Homo sapiens, UniProt P05771); assay: as above; type: cell-based; parameters: key: +++: strong inhibition of PKC activation; −: no inhibition of PKC activation; details: 20 μM, 60 min
T2 construct: endogenous in cells; host or cells: HL-60
T2 sequence (P05771 1-673 isoform P05771-2): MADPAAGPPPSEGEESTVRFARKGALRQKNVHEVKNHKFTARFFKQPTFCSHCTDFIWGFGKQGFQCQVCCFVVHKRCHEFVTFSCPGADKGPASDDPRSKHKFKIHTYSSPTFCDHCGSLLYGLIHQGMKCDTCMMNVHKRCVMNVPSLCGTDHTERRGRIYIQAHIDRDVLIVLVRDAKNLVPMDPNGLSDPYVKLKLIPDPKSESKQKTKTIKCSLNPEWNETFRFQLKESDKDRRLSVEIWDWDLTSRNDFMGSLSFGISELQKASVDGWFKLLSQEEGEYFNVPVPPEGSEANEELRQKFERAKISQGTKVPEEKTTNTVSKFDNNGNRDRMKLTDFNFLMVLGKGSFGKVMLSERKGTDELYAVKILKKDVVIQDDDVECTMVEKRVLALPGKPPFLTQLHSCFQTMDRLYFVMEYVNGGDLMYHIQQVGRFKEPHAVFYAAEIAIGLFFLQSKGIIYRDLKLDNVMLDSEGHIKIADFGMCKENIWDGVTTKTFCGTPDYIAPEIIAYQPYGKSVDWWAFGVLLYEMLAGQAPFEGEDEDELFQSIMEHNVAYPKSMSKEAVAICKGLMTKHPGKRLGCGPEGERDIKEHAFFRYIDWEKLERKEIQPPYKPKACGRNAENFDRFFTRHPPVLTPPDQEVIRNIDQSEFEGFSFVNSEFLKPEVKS
Experimental: as §1

[5] = target: T3, PKC isozyme α (Homo sapiens, UniProt P17252); assay: as above; type: cell-based; parameters: key: +++: strong inhibition of PKC activation; −: no inhibition of PKC activation; details: 20 μM, 60 min
T3 construct: endogenous in cells; host or cells: HL-60
Experimental: as §1

[6] = target: T4, PKC isozyme ε (Homo sapiens, UniProt Q02156); assay: as above; type: cell-based; parameters: key: +++: strong inhibition of PKC activation; −: no inhibition of PKC activation; details: 20 μM, 60 min
T4 construct: endogenous in cells; host or cells: HL-60
T4 sequence (Q02156 1-737): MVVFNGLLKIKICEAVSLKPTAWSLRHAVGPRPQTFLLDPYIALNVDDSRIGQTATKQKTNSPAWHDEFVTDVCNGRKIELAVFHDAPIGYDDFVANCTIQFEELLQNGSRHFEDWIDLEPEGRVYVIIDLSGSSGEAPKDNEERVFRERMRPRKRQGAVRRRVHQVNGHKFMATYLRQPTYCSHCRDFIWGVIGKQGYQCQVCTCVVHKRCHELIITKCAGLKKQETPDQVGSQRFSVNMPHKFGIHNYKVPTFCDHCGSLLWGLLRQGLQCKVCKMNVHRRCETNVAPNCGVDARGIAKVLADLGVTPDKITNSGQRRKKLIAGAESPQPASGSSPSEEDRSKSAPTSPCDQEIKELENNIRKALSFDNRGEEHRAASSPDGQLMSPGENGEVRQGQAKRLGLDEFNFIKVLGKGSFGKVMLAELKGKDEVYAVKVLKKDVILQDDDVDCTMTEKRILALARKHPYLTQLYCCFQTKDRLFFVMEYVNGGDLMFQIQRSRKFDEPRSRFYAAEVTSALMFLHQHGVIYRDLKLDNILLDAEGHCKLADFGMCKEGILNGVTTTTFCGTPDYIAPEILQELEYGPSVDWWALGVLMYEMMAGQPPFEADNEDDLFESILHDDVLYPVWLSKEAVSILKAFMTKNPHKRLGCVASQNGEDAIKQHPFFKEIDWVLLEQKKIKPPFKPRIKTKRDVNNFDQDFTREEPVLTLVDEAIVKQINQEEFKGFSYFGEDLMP
Experimental: as §1

[7] = target: T5, PKC isozyme β1 (Homo sapiens, UniProt P05771); assay: as above; type: cell-based; parameters: key: +++: strong inhibition of PKC activation; −: no inhibition of PKC activation; details: 20 μM, 60 min
T5 construct: endogenous in cells; host or cells: HL-60
T5 sequence (P05771 whole entry): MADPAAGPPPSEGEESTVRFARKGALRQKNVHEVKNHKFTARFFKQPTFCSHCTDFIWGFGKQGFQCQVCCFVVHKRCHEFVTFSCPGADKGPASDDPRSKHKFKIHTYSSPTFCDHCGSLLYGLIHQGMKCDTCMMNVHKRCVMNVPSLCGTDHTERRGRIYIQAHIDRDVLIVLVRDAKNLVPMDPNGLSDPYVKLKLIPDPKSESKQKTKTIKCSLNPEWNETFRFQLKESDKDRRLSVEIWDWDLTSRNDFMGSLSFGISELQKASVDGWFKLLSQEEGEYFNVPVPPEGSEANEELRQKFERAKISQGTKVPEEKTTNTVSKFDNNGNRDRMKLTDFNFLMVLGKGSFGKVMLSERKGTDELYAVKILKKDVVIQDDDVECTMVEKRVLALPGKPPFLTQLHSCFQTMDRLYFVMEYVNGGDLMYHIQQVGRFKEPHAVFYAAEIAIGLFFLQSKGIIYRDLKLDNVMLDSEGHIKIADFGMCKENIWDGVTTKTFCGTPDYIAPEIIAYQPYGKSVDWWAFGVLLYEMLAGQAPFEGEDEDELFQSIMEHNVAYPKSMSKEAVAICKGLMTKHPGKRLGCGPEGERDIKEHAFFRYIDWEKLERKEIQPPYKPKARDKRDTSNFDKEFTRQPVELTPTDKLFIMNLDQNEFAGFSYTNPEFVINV
Experimental: as §1

[8] = system: E-selectin; assay: Effect of lipoxygenase/cyclooxygenase inhibitors and antioxidants on suppression of E-selectin expression by β-oxa-23:4n-6; type: cell-based, human; details: HUVEC pre-treated 15 min with inhibitor, then 20 μmol/l β-oxa-23:4n-6 60 min, TNF-α 4 h
Experimental: FIG. 16 is a representation showing the effects of lipoxygenase/cyclooxygenase inhibitors and antioxidants on the modulation of E-selectin expression on HUVEC by β-oxa-23:4n-6. HUVEC were pre-treated with NDGA, baicalein, MK886, indomethacin, Vitamin E, or diluent (control) for 15 min. The cells were then further incubated with 20 μmol/l β-oxa-23:4n-6 or diluent (control) for 60 min followed by TNF-α (125 U/200 μl medium) for 4 hr and the expression of E-selectin adhesion molecule was determined. The results are expressed as % inhibition of the suppressive effect of β-oxa-23:4n-6 and represent the mean±SEM of three separate experiments each performed in quadruplicate. * p<0.01, for significant differences between pre-treatment with inhibitor and corresponding control (one-way analysis of variance followed by the Dunnett test for multiple comparisons).
Confluent second-passage HUVEC in 96-well tissue culture plates were pre-treated with 10 μmol/l NDGA (non-selective lipoxygenase inhibitor); 10 μmol/l baicalein (a specific 12-lipoxygenase inhibitor); 500 nM MK886 (an inhibitor of the 5-lipoxygenase activating protein), […] indomethacin (a cyclooxygenase inhibitor); 10 μmol/l Vitamin E (an antioxidant); or diluent (control) for 15 min. The cells were then further incubated with 20 μmol/l β-oxa-23:4n-6 or diluent (control) for 60 min followed by TNF-α (125 U) for 4 h. The expression of E-selectin adhesion molecule was determined by ELISA. While none of the inhibitors/antioxidants affected the ability of TNF to enhance E-selectin expression on HUVEC, the ability of β-oxa 23:4n-6 to suppress the action of TNF was reduced when the cells were pre-treated with either NDGA or baicalein but not with indomethacin, Vitamin E or MK886 (FIG. 16).

CCCCC/C=C\C/C=C\CCCCCCCC(=O)O [18:2n-6, octadecadienoic acid, reference compound]
Inhibition of TNF-α-enhanced neutrophil adhesion to HUVEC [1]: no significant effect

CC(=O)Oc1ccccc1C(=O)O [Aspirin, reference compound]
% inhibition of pain response, Phase I (0-5 mins) ([2]; 300 mg/kg ip): 30% | % inhibition of pain response, Phase II (15-20 mins) ([2]; 300 mg/kg ip): 91%

CCCCCCCCCCCCCCCCCC[N+](=O)[O-] [Lx1]
Inhibition of PKC activation, isozyme δ [3]: − | Inhibition of PKC activation, isozyme β2 [4]: − | Inhibition of PKC activation, isozyme α [5]: − | Inhibition of PKC activation, isozyme ε [6]: −

CC/C=C\C/C=C\C/C=C\CCCCCCCC[N+](=O)[O-] [Lx2]
Inhibition of PKC activation, isozyme δ [3]: − | Inhibition of PKC activation, isozyme β2 [4]: +++ | Inhibition of PKC activation, isozyme β1 [7]: − | Inhibition of PKC activation, isozyme α [5]: − | Inhibition of PKC activation, isozyme ε [6]: −

CCCCC/C=C\C/C=C\C/C=C\CCCCC[N+](=O)[O-] [Lx3]
Inhibition of PKC activation, isozyme δ [3]: − | Inhibition of PKC activation, isozyme β2 [4]: +++ | Inhibition of PKC activation, isozyme β1 [7]: − | Inhibition of PKC activation, isozyme α [5]: − | Inhibition of PKC activation, isozyme ε [6]: −

CCCCC/C=C\C/C=C\C/C=C\C/C=C\CCCC[N+](=O)[O-] [Lx4]
Inhibition of PKC activation, isozyme δ [3]: +++ | Inhibition of PKC activation, isozyme β2 [4]: +++ | Inhibition of PKC activation, isozyme β1 [7]: +++ | Inhibition of PKC activation, isozyme ε [6]: −

CC/C=C\C/C=C\C/C=C\C/C=C\C/C=C\C/C=C\CCC[N+](=O)[O-] [Lx5]
Inhibition of PKC activation, isozyme δ [3]: − | Inhibition of PKC activation, isozyme β2 [4]: − | Inhibition of PKC activation, isozyme β1 [7]: − | Inhibition of PKC activation, isozyme α [5]: −

CC(C)c1ccc2c(c1)c(SC(C)(C)C)c(CC(C)(C)C(=O)O)n2Cc1ccc(Cl)cc1 [MK886]
Effect on ability of β-oxa 23:4n-6 to suppress TNF-induced E-selectin expression [8]: not

CN1CC[C@]23c4c5ccc(O)c4O[C@H]2[C@@H](O)C=C[C@H]3[C@H]1C5 [Morphine, reference compound]
% inhibition of pain response, Phase I (0-5 mins) ([2]; 10 mg/kg ip): 85% | % inhibition of pain response, Phase II (15-20 mins) ([2]; 10 mg/kg ip): 100%

CC(Cc1ccc(O)c(O)c1)C(C)Cc1ccc(O)c(O)c1 (stereo not shown) [NDGA, nordihydroguairetic acid]
Effect on ability of β-oxa 23:4n-6 to suppress TNF-induced E-selectin expression [8]: reduced

O=c1cc(-c2ccccc2)oc2cc(O)c(O)c(O)c12 [baicalein]
Effect on ability of β-oxa 23:4n-6 to suppress TNF-induced E-selectin expression [8]: reduced

COc1ccc2c(c1)c(CC(=O)O)c(C)n2C(=O)c1ccc(Cl)cc1 [indomethacin]
Effect on ability of β-oxa 23:4n-6 to suppress TNF-induced E-selectin expression [8]: not

CCCCC/C=C\C/C=C\C/C=C\CCCCCOCC(=O)O [β-oxa-21:3n-6]
Inhibition of TNF-α-enhanced neutrophil adhesion to HUVEC [1]: inhibited their ability to be stimulated

CC/C=C\C/C=C\C/C=C\CCCCCCCCSCC(=O)O [β-thia-21:3n-3]
Inhibition of TNF-α-enhanced neutrophil adhesion to HUVEC [1]: inhibited their ability to be stimulated

CCCCC/C=C\C/C=C\C/C=C\CCCCCSCC(=O)O [β-thia-21:3n-6]
Inhibition of TNF-α-enhanced neutrophil adhesion to HUVEC [1]: inhibited their ability to be stimulated

CCCCC/C=C\C/C=C\C/C=C\C/C=C\CCCCSCC(=O)O [β-thia-23:4n-6]
Inhibition of TNF-α-enhanced neutrophil adhesion to HUVEC [1]: inhibited their ability to be stimulated | Inhibition of TNF-α-enhanced neutrophil adhesion to HUVEC ([1]; listed as β-thia 23:4n-6): less active than this β-oxa compound

Vitamin E
Effect on ability of β-oxa 23:4n-6 to suppress TNF-induced E-selectin expression [8]: not
